The source of these data is patent publication US20110306570A1, “Na/K-Atpase Expression as an Indicator for the Treatment of Cancer” (UNIVERSITY OF TOLEDO, priority 2008, published 2011).

Entries after “also recorded” stand apart in the source; their conditions may differ.

Experiment [1] addresses Na/K-ATPase α1 (Homo sapiens, UniProt P05023). The experiment is described as follows: Na/K-ATPase α1 degradation with cycloheximide, BT-20 cells. The format is cell-based. Also on record: endogenous in cells; host or cells: BT20. Particulars: cycloheximide pre-treatment, 10 nM ouabain for 6, 16 and 24 h. As for the experimental part:
FIG. 6C: BT20 cells were treated as in panel B and assayed for Na/K-ATPase α1. *p<0.05.

For experiment [2], the system named is Na/K-ATPase α1 mRNA. The experiment is described as follows: Na/K-ATPase α1 mRNA by RT-PCR, BT20 cells. The format is cell-based, human. The conditions noted are these: 10 nM ouabain, 24 h. The procedure: (§1) Total RNA was extracted and applied for RT-PCR to probe Na/K-ATPase α1 as described in the Experimental Procedures section.
(§2) Quantitative RT-PCR: The cells were seeded in 6-cm dishes and serum-starved for 24 h after the confluence reached 90%. […] Total RNA was extracted using TRIzol and subjected to quantitative RT-PCR analysis. The assays were performed on the AB 7500 real time PCR system with the following protocol: 1 cycle (6 min at 95° C.), 40 cycles (30 s at 95° C., 30 s at 52° C., 30 s at 72° C., and 1 min at 85° C.), followed by a dissociation stage to ensure a single product. The reactions are in a total volume of 25 μl, including 1.25 µl of Sybr Green (Invitrogen), 0.125 µl of DNA polymerase (Denville), 2.5 µl of dNTP (Invitrogen), 10 ng of cDNA. Primer pairs were used at 5 μM concentration, and the sequences are:
(§3) The relative Na/K-ATPase al gene expression was calculated by comparative threshold (CT) method (ΔΔCT). To normalize the difference amounts of cDNA, GAPDH was used as an internal control.

Experiment [3] relates to Na/K-ATPase α1 mRNA. The experiment is described as follows: Na/K-ATPase α1 mRNA by RT-PCR, DU145 cells. Particulars: 10 nM ouabain, 24 h. The format is cell-based, human. The procedure:
as §1, §2, §3

For experiment [4], the target named is T1, Na/K-ATPase in the plasma membrane (Sus scrofa, UniProt P05024).
T1 construct: endogenous in cells; host or cells: LLC-PK1 (intact cells)
The experiment is described as follows: 3H-ouabain binding after ouabain pre-treatment, LLC-PK1 cells. The format is cell-based, pig. Particulars: ouabain up to 10 nM, 72 h. The procedure: (§4) The cells were washed and 3H-ouabain were performed as described herein. * p<0.05, ** p<0.01
(§5) To assess the functional consequence of these changes in α1 expression, the inventors measured the number of functional Na/K-ATPase in the plasma membrane.
(§6) Afterwards, cells were washed with serum-free medium and subjected to 3H-ouabain binding assay. Briefly, cells were incubated in K+-free Kreb's solution (NaCl 137 mM; KCl 0 mM; CaCl2 2.8 mM; NaH2PO4 0.6 mM; MgSO4 1.2 mM; dextrose; 10 mM; Tris 15 mM; pH7.4) for 15 min, and then exposed to 100 nM 3H-ouabain for 30 min at 37° C. At the end of incubation, the cells were washed 3 times with ice-cold K+-free Kreb's solution, solubilized in 0.1M NaOH-0.2% SDS, and counted in a scintillation counter for 3H-ouabain. […] Paralleled plates were used for counting cell numbers. 3H-ouabain binding data were calculated as binding sites per cell.

For experiment [5], the target named is T2, Na/K-ATPase α1 (Mus musculus, UniProt Q8VDN2).
T2 construct: endogenous in cells; host or cells: SYF cells; SYF cells rescued by c-Src
The experiment is described as follows: Na/K-ATPase α1 expression, SYF cells rescued by c-Src. Format: cell-based. The conditions noted are these: 0.5 and 1.0 μM ouabain. From the text: (§7) To further understand the molecular mechanism of ouabain-induced up-regulation of α1, the inventors first addressed the role of Src.

Experiment [6] has as its system P-11 cells (control vector-transfected LLC-PK1). In words: MTT cell growth assay, control P-11 cells. Format: cell-based, pig. The conditions noted are these: ouabain 1 to 10 nM, 16 h. The procedure: (§8) MTT assay for measuring cell proliferation: Cells were sub-cultured in 96 well plates at 10,000 cells/well in 100 μl culture medium. […] Ten μl MTT reagent (3-4,5-dimethylthiazol-2-yl)-2,5-diphenyltetrazolium bromide) was added to each well for 90 min. The formazan crystal was dissolved with detergent and the OD value was measured at 570 nm.

The subject of experiment [7] is BT20 cells. The experiment is described as follows: Cell growth curve (cell counting), BT20 cells. The format is cell-based, human. As for the experimental part:
FIG. 1B: The above three cell lines were subcultured in 12-well plates (50,000 cells/well) and serum starved.
Cell growth curve and cell cycle measurement: Cells were sub-cultured in 12 well plates at 50,000/well in 1 ml culture medium for 24 h. […] At each indicated time point, three wells of control or treated cells were trypsinized and counted. For cell cycle measurement, cells were trypsinized and re-suspended in Citrate buffer (8.55% sucrose, 1.18% Na citrated, 5% DMSO, pH 7.6), and stained with propidium iodide (PI). The stained cells were then analyzed by Flow Cytometry.

Experiment [8] addresses T3, Na/K-ATPase α1 (Sus scrofa, UniProt P05024).
T3 construct: endogenous in cells; host or cells: LLC-PK1 (ATCC) and its caveolin-1 knock-down line C2-9
In words: Na/K-ATPase α1 expression by Western blot, LLC-PK1 cells. Format: cell-based, pig. The procedure:
FIG. 7A: LLC-PK1 cells were pre-treated with 10 nM rapamycin or 50 μM LY294002 for 30 min. […] The cell lysates were analyzed for Na/K-ATPase α1 using Western blot.
(In general: Immunoblotting shows a protein as a band on a membrane.)

Experiment [9] deals with T3, Na/K-ATPase α1. In words: Na/K-ATPase α1 expression, caveolin-1 knock-down C2-9 cells. The format is cell-based, pig. The conditions noted are these: C2-9 caveolin-1 knockdown cells, 5 and 10 nM ouabain, 72 h.
Experiment [10] deals with BT20 cells. The experiment is described as follows: MTT cell growth assay, BT20 cells. The format is cell-based, human. The conditions noted are these: 24 h. The procedure: FIG. 1A: LLC-PK1 cells, BT20 cells, and DU145 cells were subcultured in 96-well plates (10,000 cells/well) and serum starved. […] Cells were solublized by adding 100 μl/well detergent provided by ATCC after 90 min of incubation and OD570 was then measured.
as §8
(Formazan colour is commonly taken as a measure of viable cells.)

The target in experiment [11] is Na/K-ATPase in the plasma membrane (Homo sapiens, UniProt P05023). In words: 3H-ouabain binding after ouabain pre-treatment, BT20 cells. Format: cell-based. Details: endogenous in cells; host or cells: BT20 (intact cells). Particulars: ouabain 72 h. The procedure: as §4, §5, §6
Experiment [12] deals with T2, Na/K-ATPase α1. In words: Na/K-ATPase α1 expression, SYF cells. Format: cell-based. The conditions noted are these: SYF cells (Src, Yes, Fin knocked out), 0.5 and 1.0 μM ouabain.
Source text: as §7

Take `C[C@@H]1O[C@@H](O[C@H]2C[C@@H](O)[C@]3(CO)[C@H]4[C@H](O)C[C@]5(C)[C@@H](C6=CC(=O)OC6)CC[C@]5(O)[C@@H]4CC[C@]3(O)C2)[C@H](O)[C@H](O)[C@H]1O` [ouabain]: in experiment [1], the “degradation of Na/K-ATPase α1 subunit” value is reported as “more degradation of al subunit; also recorded: more degradation of the a1 subunit”. For the same compound, the “levels of α1 mRNA” value in experiment [2] and in experiment [3] was “no effect on levels of α1 mRNA” in each case. In experiment [4], the “number of 3H-ouabain binding sites (functional plasma membrane Na/K-ATPase)” value is on record as “barely changed the number of binding sites”. Further, the “induction of α1 expression” value in experiment [5] was “three-fold induction”. Also, the entries for the “effect on cell growth (MTT)” value in experiment [6] and in experiment [10] (10-50 nM ouabain) were “stimulated the cell growth” and “significant inhibition of cell growth”, respectively. The “block of cell growth (cell counting)” value in [7] (50 nM ouabain) was “completely block the growth”. In addition, in experiment [7] (10 and 50 nM ouabain), the “cell number as a function of time” value is reported as “significantly reduced the number of BT20 cells”. For the same compound, in experiment [8] (10 nM rapamycin pre-treatment, 10 nM ouabain 24 h), the “α1 expression with ouabain in the presence of rapamycin” value is recorded as “further decrease in the expression of al; also recorded: further decrease in the expression of a1”. In addition, the “Na/K-ATPase α1 expression” value in experiment [8] (ouabain 24 h or 72 h exposure) was “induction of α1 expression”. In addition, in experiment [9], the “ouabain-induced increases in α1 expression” value is “completely abolished ouabain-induced increases in α1 expression”. In experiment [10] (different concentrations of ouabain), the “stimulatory effect on cell growth (MTT)” value is recorded as “failed to detect any stimulatory effect”. For the same compound, the “surface active Na/K-ATPase (3H-ouabain binding)” value in experiment [11] is “significant decrease in surface active Na/K-ATPase”. The “ouabain-induced α1 expression” value in experiment [12] is recorded as “completely blocked ouabain-induced α1 expression”.
